From EP4803094A2, “GLP-1/GIP DUAL, GLP-1/GCG DUAL AND GLP-1/GIP/GCG TRIPLE RECEPTOR AGONISTS” (Sun Pharmaceutical Industries Limited, priority 2023, dated 2024)
Marks after values point to notes of the source that are not given here.

Tests used:
Format in all cases: in vivo
[1] = tested on: Type 2 diabetes mouse (db/db) model; test: Efficacy study in db/db mice (blood glucose, body weight, food consumption); settings: 10 nM/kg s.c. single dose, mean (n=6)
Protocol: The effect of the compounds as described herein on blood glucose, food intake and body weight were studied in mice. This study was performed in Type 2 diabetes mouse (db/db) model. The animals were divided into 9 treatment groups (n=6): a diabetic control group, Compound 12 (10 nM/kg), Compound 13 (10 nM/kg), Compound 26 (10 nM/kg), Compound 14 (10 nM/kg), Compound 15 (10 nM/kg), Compound 21 (10 nM/kg), Compound 22 (10 nM/kg), and Tirzepatide (10 nM/kg). Baseline blood glucose was measured from all the animals. All the animals were administered with test item subcutaneously. Blood glucose was measured at 4 hr, 8 hr, 12 hr, 24 hr, 48 hr, 72 hr, and 96 hr post treatment. Delta blood glucose (mM) was calculated. Body weight changes and cumulative food consumption were measured at 48 hr and 96 hr post treatment. Table 3. Effect on Blood Glucose

[2] = tested on: Rats; test: Oral Glucose Tolerance Test (OGTT) in rats, single injection (blood glucose AUC, body weight, food consumption); settings: 30 nM/kg s.c., mean (n=4); for Body weight change (%): 24 hr
[3] = tested on: Rats; test: as above; settings: for Food Consumption (g) / Body weight change (%): 30 nM/kg s.c.; for Food Consumption (g): 0-12 hr; for Food Consumption (g) / Body weight change (%) / Blood Glucose AUC(0-120min) Mean: mean (n=4); for Blood Glucose AUC(0-120min) Mean: OGTT 2 g/kg glucose orally, 24 hr post subcutaneous injection of 30 nM/kg; for % Change in Blood glucose AUC(0-120min) vs placebo control: OGTT 24 hr post subcutaneous injection of 30 nM/kg
Protocol: Animals were divided into 6 groups (n=4/group): a placebo control group, Compound 17, (30 nM/kg), Compound 18 (30 nM/kg), Compound 19 (30 nM/kg), Compound 20 (30 nM/kg), and Retatrutide (30 nM/kg). Animals were fasted for 12 hours before initiation of OGTT. After 24 hours of subcutaneous injection of tests or Retatrutide, blood glucose was measured with blood glucometer (time 0 measurement). All the animals were given 2 g/kg of glucose solution orally. Blood glucose was measured at 10, 20, 40, 60, 90, and 120 min following glucose challenge. Body weight and food consumption were recorded at 12 hr, 48 hr and 72 hr.

SMILES | Cumulative Food Consumption (g) 0-48 hr [1] | Cumulative Food Consumption (g) 0-96 hr [1] | Delta Blood Glucose ([1]; 4 hr post treatment) [mM] | Delta Blood Glucose (mM) ([1]; 24 hr post treatment) | Delta Blood Glucose (mM) ([1]; 48 hr post treatment) | Body Weight Change (%) 48 hr [1] | Delta Blood Glucose ([1]; 96 hr post treatment) [mM] | Body Weight Change (%) 96 hr [1] | Food Consumption (g) ([2]; 24-48 hr) | Food Consumption (g) ([2]; 24-72 hr) | Body weight change (%) [2] | Food Consumption (g) [3] | Body weight change (%) ([3]; 48 hr) | Body weight change (%) ([3]; 72 hr) | Blood Glucose AUC(0-120min) Mean [3] | % Change in Blood glucose AUC(0-120min) vs placebo control [3] [%] | also measured
CC[C@H](C)[C@H](NC(=O)[C@H](Cc1ccccc1)NC(=O)[C@H](C)NC(=O)C(C)(C)NC(=O)[C@H](CCC(N)=O)NC(=O)[C@H](C)NC(=O)[C@H](CCCCNC(=O)COCCOCCNC(=O)C(C)(C)NC(=O)CC[C@H](NC(=O)CCCCCCCCCCCCCCCCC(=O)O)C(=O)O)NC(=O)[C@H](CCCCN)NC(=O)[C@H](CC(=O)O)NC(=O)[C@H](CC(C)C)NC(=O)[C@](C)(CC(C)C)NC(=O)[C@@H](NC(=O)[C@H](CO)NC(=O)[C@H](Cc1ccc(O)cc1)NC(=O)[C@H](CC(=O)O)NC(=O)[C@H](CO)NC(=O)[C@@H](NC(=O)[C@H](Cc1ccccc1)NC(=O)[C@@H](NC(=O)CNC(=O)[C@H](CCC(N)=O)NC(=O)C(C)(C)NC(=O)[C@@H](N)Cc1ccc(O)cc1)[C@@H](C)O)[C@@H](C)O)[C@@H](C)CC)C(=O)N[C@@H](CCC(=O)O)C(=O)N[C@@H](Cc1ccc(O)cc1)C(=O)N[C@@H](CC(C)C)C(=O)N[C@@H](CC(C)C)C(=O)N[C@@H](CCC(=O)O)C(=O)NCC(=O)NCC(=O)N1CCC[C@H]1C(=O)N[C@@H](CO)C(=O)N[C@@H](CO)C(=O)NCC(=O)N[C@@H](C)C(=O)N1CCC[C@H]1C(=O)N1CCC[C@H]1C(=O)N1CCC[C@H]1C(=O)N[C@@H](CO)C(N)=O [Compound 12] | 3.1*** g | 10.9*** g | -3.2 | -13.7*** mM | -11.4*** mM | -8.0*** % | -6.4 | -3.7*** % | – | – | – | – | – | – | – | – | Delta Blood Glucose (mM) ([1]; 8 hr post treatment): -8.9* mM; Delta Blood Glucose (mM) ([1]; 12 hr post treatment): -13.2*** mM; Delta Blood Glucose (mM) ([1]; 72 hr post treatment): -9.2** mM
CCCC[C@H](NC(=O)[C@@H](NC(=O)[C@H](CO)NC(=O)[C@H](Cc1ccc(O)cc1)NC(=O)[C@H](CC(=O)O)NC(=O)[C@H](CO)NC(=O)[C@@H](NC(=O)[C@H](Cc1ccccc1)NC(=O)[C@@H](NC(=O)CNC(=O)[C@H](CCC(N)=O)NC(=O)C(C)(C)NC(=O)[C@@H](N)Cc1ccc(O)cc1)[C@@H](C)O)[C@@H](C)O)[C@@H](C)CC)C(=O)N[C@@H](CC(C)C)C(=O)N[C@@H](CC(=O)O)C(=O)N[C@@H](CCCCN)C(=O)N[C@@H](CCCCNC(=O)COCCOCCNC(=O)C(C)(C)NC(=O)CC[C@H](NC(=O)CCCCCCCCCCCCCCCCCCC(=O)O)C(=O)O)C(=O)N[C@@H](C)C(=O)N[C@@H](CCC(N)=O)C(=O)NC(C)(C)C(=O)N[C@@H](C)C(=O)N[C@@H](Cc1ccccc1)C(=O)N[C@H](C(=O)N[C@@H](CCC(=O)O)C(=O)N[C@@H](Cc1ccc(O)cc1)C(=O)N[C@@H](CC(C)C)C(=O)N[C@@H](CC(C)C)C(=O)N[C@@H](CCC(=O)O)C(=O)NCC(=O)NCC(=O)N1CCC[C@H]1C(=O)N[C@@H](CO)C(=O)N[C@@H](CO)C(=O)NCC(=O)N[C@@H](C)C(=O)N1CCC[C@H]1C(=O)N1CCC[C@H]1C(=O)N1CCC[C@H]1C(=O)N[C@@H](CO)C(N)=O)[C@@H](C)CC [Compound 14] | 3.0*** g | 8.3*** g | -3.8 | -9.2** mM | -9.3* mM | -8.8*** % | -2.6 | -7.1*** % | – | – | – | – | – | – | – | – | Delta Blood Glucose ([1]; 8 hr post treatment): -3.1 mM; Delta Blood Glucose ([1]; 12 hr post treatment): -6.2 mM; Delta Blood Glucose ([1]; 72 hr post treatment): -7 mM
CCC[C@H](NC(=O)[C@@H](NC(=O)[C@H](CO)NC(=O)[C@H](Cc1ccc(O)cc1)NC(=O)[C@H](CC(=O)O)NC(=O)[C@H](CO)NC(=O)[C@@H](NC(=O)[C@H](Cc1ccccc1)NC(=O)[C@@H](NC(=O)CNC(=O)[C@H](CCC(N)=O)NC(=O)C(C)(C)NC(=O)[C@@H](N)Cc1ccc(O)cc1)[C@@H](C)O)[C@@H](C)O)[C@@H](C)CC)C(=O)N[C@@H](CC(C)C)C(=O)N[C@@H](CC(=O)O)C(=O)N[C@@H](CCCCN)C(=O)N[C@@H](CCCCNC(=O)COCCOCCNC(=O)C(C)(C)NC(=O)CC[C@H](NC(=O)CCCCCCCCCCCCCCCCCCC(=O)O)C(=O)O)C(=O)N[C@@H](C)C(=O)N[C@@H](CCC(N)=O)C(=O)NC(C)(C)C(=O)N[C@@H](C)C(=O)N[C@@H](Cc1ccccc1)C(=O)N[C@H](C(=O)N[C@@H](CCC(=O)O)C(=O)N[C@@H](Cc1ccc(O)cc1)C(=O)N[C@@H](CC(C)C)C(=O)N[C@@H](CC(C)C)C(=O)N[C@@H](CCC(=O)O)C(=O)NCC(=O)NCC(=O)N1CCC[C@H]1C(=O)N[C@@H](CO)C(=O)N[C@@H](CO)C(=O)NCC(=O)N[C@@H](C)C(=O)N1CCC[C@H]1C(=O)N1CCC[C@H]1C(=O)N1CCC[C@H]1C(=O)N[C@@H](CO)C(N)=O)[C@@H](C)CC [Compound 17] | – | – | – | – | – | – | – | – | 15.8*** g | 31.3*** g | -6.8*** % | 1.4*** g | -5.0*** % | -3.3*** % | 4771.3*** | -50.67 | –
CCC[C@H](NC(=O)[C@@H](NC(=O)[C@H](CO)NC(=O)[C@H](Cc1ccc(O)cc1)NC(=O)[C@H](CC(=O)O)NC(=O)[C@H](CO)NC(=O)[C@@H](NC(=O)[C@H](Cc1ccccc1)NC(=O)[C@@H](NC(=O)CNC(=O)[C@H](CCC(N)=O)NC(=O)C(C)(C)NC(=O)[C@@H](N)Cc1ccc(O)cc1)[C@@H](C)O)[C@@H](C)O)[C@@H](C)CC)C(=O)N[C@@H](CC(C)C)C(=O)N[C@@H](CC(=O)O)C(=O)N[C@@H](CCCCN)C(=O)N[C@@H](CCCCNC(=O)COCCOCCNC(=O)COCCOCCNC(=O)CC[C@H](NC(=O)CCCCCCCCCCCCCCCCCCC(=O)O)C(=O)O)C(=O)N[C@@H](C)C(=O)N[C@@H](CCC(N)=O)C(=O)NC(C)(C)C(=O)N[C@@H](C)C(=O)N[C@@H](Cc1ccccc1)C(=O)N[C@H](C(=O)N[C@@H](CCC(=O)O)C(=O)N[C@@H](Cc1ccc(O)cc1)C(=O)N[C@@H](CC(C)C)C(=O)N[C@@H](CC(C)C)C(=O)N[C@@H](CCC(=O)O)C(=O)NCC(=O)NCC(=O)N1CCC[C@H]1C(=O)N[C@@H](CO)C(=O)N[C@@H](CO)C(=O)NCC(=O)N[C@@H](C)C(=O)N1CCC[C@H]1C(=O)N1CCC[C@H]1C(=O)N1CCC[C@H]1C(=O)N[C@@H](CO)C(N)=O)[C@@H](C)CC [Compound 18] | – | – | – | – | – | – | – | – | 5.8*** g | 16.8*** g | -6.5*** % | 3.0*** g | -4.6*** % | -2.6*** % | 4176.3*** | -56.82 | –
CC[C@H](C)[C@H](NC(=O)[C@H](Cc1ccccc1)NC(=O)[C@H](C)NC(=O)C(C)(C)NC(=O)[C@H](CCC(N)=O)NC(=O)[C@H](C)NC(=O)[C@H](CCCCNC(=O)COCCOCCNC(=O)NCCCCNC(=O)CC[C@H](NC(=O)CCCCCCCCCCCCCCCCC(=O)O)C(=O)O)NC(=O)[C@H](CCCCN)NC(=O)[C@H](CC(=O)O)NC(=O)[C@H](CC(C)C)NC(=O)[C@](C)(CC(C)C)NC(=O)[C@@H](NC(=O)[C@H](CO)NC(=O)[C@H](Cc1ccc(O)cc1)NC(=O)[C@H](CC(=O)O)NC(=O)[C@H](CO)NC(=O)[C@@H](NC(=O)[C@H](Cc1ccccc1)NC(=O)[C@@H](NC(=O)CNC(=O)[C@H](CCC(N)=O)NC(=O)C(C)(C)NC(=O)[C@@H](N)Cc1ccc(O)cc1)[C@@H](C)O)[C@@H](C)O)[C@@H](C)CC)C(=O)N[C@@H](CCC(=O)O)C(=O)N[C@@H](Cc1ccc(O)cc1)C(=O)N[C@@H](CC(C)C)C(=O)N[C@@H](CC(C)C)C(=O)N[C@@H](CCC(=O)O)C(=O)NCC(=O)NCC(=O)N1CCC[C@H]1C(=O)N[C@@H](CO)C(=O)N[C@@H](CO)C(=O)NCC(=O)N[C@@H](C)C(=O)N1CCC[C@H]1C(=O)N1CCC[C@H]1C(=O)N1CCC[C@H]1C(=O)N[C@@H](CO)C(N)=O [Compound 19] | – | – | – | – | – | – | – | – | 7.2*** g | 17.0*** g | -6.3*** % | 1.3*** g | -4.9*** % | -2.6*** % | 3848.8*** | -60.20 | –
